Test results as given in article PMC3747139 (PLoS ONE, 2013).
Where two headings read alike, the source gives them in different places. Marks after values point to notes of the source that are not given here.

Experiments:
HQF DNA [d(T2AG3)4] = experiment: SYBR Green melting study with HQF DNA; assay type: binding, human; settings: melting temperature of HQF DNA (5 µM) in presence of 1 µM ligand
Experimental: When quadruplex DNA melts to form ssDNA structure, SG fluorescence intensity gradually reduces as SG has no binding to ssDNA. Each time, 5 µM of HQF DNA [d(T2AG3)4)], 5 µM of dsDNA (prepared by mixing equal concentration of poly-dA-dT and poly-dT-dA), 5 µM ssDNA ( poly dT alone) and 1 µM of each ligand was incubated at 4°C for 16 h, and used for melting studies. […] Affinity, stoichiometry and thermodynamic parameters for quadruplex-ligand complex were studied with 60 µM of ligand and 10 µM of HQF DNA using Microcal VP-ITC (Northampton, MA, USA). Ligand addition to G-quadruplex DNA was made every 180 seconds. Titration experiments were performed thrice and blank correction was made each time to minimize error.

A549 = experiment: Cell count assay (trypan blue); assay type: cell-based, human;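 for Number of viable cells after 24 h of ligand treatment: each ligand tested at its own IC50 concentration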
Experimental: (§1) Normal and tumor cell lines were seeded at 20000–40000 cells/cm^2 with 0.2 mL/cm^2 media and incubated for 48 h at 37°C, 6% CO2, 95% relative humidity. […] After 24 h and 48 h of incubation, cells were washed with 300 µl PBS or 0.02% EDTA, trypsinized, followed by harvesting at 37°C. 200 µl cell suspension was transferred into 1.5 ml microcentrifuge tube. To the cell suspension, 300 µl PBS followed by 500 µl of 0.4% trypan blue solution was added. To get the homogenised solution, the microcentrifuge tube was gently tapped for 5 min, 20 µl of cell suspension was loaded in to a chamber of the haemocytometer.

B16F10 = experiment: Cell count assay (trypan blue); assay type: cell-based, human
Experimental: as §1

MCF-7 = experiment: Cell count assay (trypan blue); assay type: cell-based, human;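 for Number of viable cells after 48 h of ligand treatment: each ligand tested at its own IC50 concentration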
Experimental: as §1

[1] = Cell count assay (trypan blue); assay type: cell-based; design: concentration or dose not given beside the values; settings: human; for viability at 24 h: read-out: Number of viable cells after 24 h of ligand treatment; for viability at 48 h: read-out: Number of viable cells after 48 h of ligand treatment
Experimental: as §1

SMILES: COc1ccc(-c2c(-c3ccccc3)nnn2CC2CCCCO2)cc1 (stereo not shown) [Ligand L14, 5-(4-Methoxyphenyl)-4-phenyl-1-((tetrahydro-2H-pyran-2-yl)methyl)-1H-1,2,3-triazole]
- Tm (HQF DNA [d(T2AG3)4]): 27 ^o C
- Number of viable cells after 24 h of ligand treatment (A549; A549, 24 h): + (Viable cells in the range of 80%–90%)
- Number of viable cells after 48 h of ligand treatment (A549; A549, 48 h): ++ (Viable cells in the range of 50%–60%)
- Number of viable cells after 24 h of ligand treatment (B16F10; B16F10, 24 h): + (Viable cells in the range of 80%–90%)
- Number of viable cells after 48 h of ligand treatment (B16F10; B16F10, 48 h): ++ (Viable cells in the range of 50%–60%)
- Number of viable cells after 24 h of ligand treatment (MCF-7; MCF-7, 24 h): + (Viable cells in the range of 80%–90%)
- Number of viable cells after 48 h of ligand treatment (MCF-7; MCF-7, 48 h): ++ (Viable cells in the range of 50%–60%)
- viability at 24 h ([1]; CRL-2115 cells (normal cell line), CRL-2115, 24 h): 80 to 90%
- viability at 48 h ([1]; CRL-2115 cells (normal cell line), CRL-2115, 48 h): 80 to 90%
- viability at 24 h ([1]; CRL-2120 cells (normal cell line), CRL-2120, 24 h): 80 to 90%
- viability at 48 h ([1]; CRL-2120 cells (normal cell line), CRL-2120, 48 h): 80 to 90%
- viability at 24 h ([1]; NCM-460 cells (normal cell line), NCM-460, 24 h): 80 to 90%
- viability at 48 h ([1]; NCM-460 cells (normal cell line), NCM-460, 48 h): 50 to 60%
